Assay results taken from patent EP1213583A1, “General method for the covalent immobilisation of indicators in, or onto a support useful for the fabrication of optical sensors” (Innosense S.r.l., priority 2000, dated 2002).
Where two headings read alike, the source gives them in different places.

Test: pKa determination from absorbance or reflectance spectra vs. pH (four parameter sigmoid fit)
Format: physicochemical
Conditions: 25°C, 0.9% NaCl
Method: Preferred embodiments of the Invention are illustrated by the following examples. In all cases pKa values of the indicators were obtained at 25°C and constant ionic strength (0.9% NaCl, with buffers at 0.01 M). Absorbance or reflectance spectra of the dyed substrates were taken using a Shimadzu UV-VIS-NIR spectrophotometer model 3101PC or an Ocean Optics PC1000 optical fibre spectrophotometer. pKa data were obtained by plotting the function λb-λ850nm/λa-λ850nm vs. pH, where λb is the absorbance or reflectance at the absorption maximum of the basic form of the indicator dye, λa is absorbance or reflectance at the absorption maximum of the acid form of the indicator dye and λ850nm is the absorption or reflectance at 850 nm. The plots were analysed by fitting the data with the four parameter sigmoid function, f = (a - d)/[1 + (x/c)^b] + d, where a is the asymptotic maximum, b is the slope, c is the pH at inflection or pKa and d is the asymptotic minimum. The fitting was performed using the Marquardt-Levenberg nonlinear least-squares method.

[1] = immobilised by Mannich reaction in Biodyne B nylon 6,6 membrane

Compound | pKa [1] | solution pKa (indicator in solution) | pKa (immobilised by Mannich reaction in Biodyne A nylon 6,6 membrane) | pKa (immobilised by Mannich reaction on LoProdyne nylon 6,6 membrane modified with 1,6-diaminohexane) | pKa (indicator in solution, read-out: solution pKa)
O=[N+]([O-])c1ccc(N=Nc2c(S(=O)(=O)[O-])cc(O)c3ccc(S(=O)(=O)[O-])cc23)c([N+](=O)[O-])c1.[Na+].[Na+] [nitrazine yellow, 4-(2',4'-dinitrophenylazo)-1-hydroxynaphthalene-3,6-disulfonic acid disodium salt] | 5.41 | 6.60 | – | – | –
O=S1(=O)OC(c2ccc(O)cc2)(c2ccc(O)cc2)c2ccccc21 [phenol red] | 8.68 | – | 9.64 | 9.86 | 8
